Here are results for ten molecules from ChEMBL document CHEMBL1158598, “5-ureidobenzofuranone indoles as potent and efficacious inhibitors of PI3 kinase-alpha and mTOR for the treatment of breast cancer” (Bioorg Med Chem Lett, 2010).

Data set [1] deals with Phosphatidylinositol 4,5-bisphosphate 3-kinase catalytic subunit alpha isoform (Homo sapiens, UniProt P42336). Put plainly: Inhibition of PI3Kalpha.
Data set [2] addresses Serine/threonine-protein kinase mTOR (Homo sapiens, UniProt P42345). Put plainly: Inhibition of mTOR.
Data set [3] can be described thus: Cytotoxicity against human PC3MM2 cells. The class given is functional, cell-based.
In data set [4] the test system is MDA-MB-361. In words: Cytotoxicity against human MDA-MB-361 cells. Format: functional, cell-based.
Data set [5] addresses Phosphatidylinositol 4,5-bisphosphate 3-kinase catalytic subunit beta isoform (Homo sapiens, UniProt P42338). Put plainly: Inhibition of PI3Kbeta.
Data set [6] has as its target Phosphatidylinositol 4,5-bisphosphate 3-kinase catalytic subunit gamma isoform (Homo sapiens, UniProt P48736). Put plainly: Inhibition of PI3gamma.
The target in data set [7] is T1, Phosphatidylinositol 4,5-bisphosphate 3-kinase catalytic subunit delta isoform (Homo sapiens, UniProt O00329).
T1 sequence (O00329 whole entry): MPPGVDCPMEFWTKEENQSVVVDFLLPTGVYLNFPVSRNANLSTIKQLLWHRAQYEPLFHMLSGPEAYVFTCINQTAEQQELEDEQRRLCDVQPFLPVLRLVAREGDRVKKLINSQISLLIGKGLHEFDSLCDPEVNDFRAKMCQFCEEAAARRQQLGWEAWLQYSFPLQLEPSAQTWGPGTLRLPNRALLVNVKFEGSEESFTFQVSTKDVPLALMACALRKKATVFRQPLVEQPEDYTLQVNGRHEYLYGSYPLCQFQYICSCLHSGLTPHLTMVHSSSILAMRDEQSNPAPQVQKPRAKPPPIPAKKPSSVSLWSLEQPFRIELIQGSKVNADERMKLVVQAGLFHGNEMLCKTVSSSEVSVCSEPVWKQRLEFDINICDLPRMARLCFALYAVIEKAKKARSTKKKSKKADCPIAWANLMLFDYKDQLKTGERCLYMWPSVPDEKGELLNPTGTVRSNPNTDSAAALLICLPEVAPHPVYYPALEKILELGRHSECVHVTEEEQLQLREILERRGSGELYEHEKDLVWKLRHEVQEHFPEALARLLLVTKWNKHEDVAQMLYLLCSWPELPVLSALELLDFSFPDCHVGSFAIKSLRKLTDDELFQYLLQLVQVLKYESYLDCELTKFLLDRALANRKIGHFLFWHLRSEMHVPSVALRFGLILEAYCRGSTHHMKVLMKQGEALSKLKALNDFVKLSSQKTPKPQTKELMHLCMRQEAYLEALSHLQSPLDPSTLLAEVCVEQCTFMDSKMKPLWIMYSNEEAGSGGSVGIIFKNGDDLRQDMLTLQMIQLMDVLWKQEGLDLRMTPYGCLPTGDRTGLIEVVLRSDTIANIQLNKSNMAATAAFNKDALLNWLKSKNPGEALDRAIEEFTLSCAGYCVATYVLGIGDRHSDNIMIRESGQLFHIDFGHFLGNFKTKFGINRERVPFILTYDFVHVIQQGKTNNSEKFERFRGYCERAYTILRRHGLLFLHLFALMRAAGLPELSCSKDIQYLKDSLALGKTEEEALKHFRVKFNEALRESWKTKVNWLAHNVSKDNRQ
Put plainly: Inhibition of PI3delta.

In data set [8] the test system is Phosphatidylinositol 4,5-bisphosphate 3-kinase catalytic subunit alpha isoform (Homo sapiens), P42336 [H1047R]. Put plainly: Inhibition of PI3Kalpha H1047R mutant.
Sequence of Phosphatidylinositol 4,5-bisphosphate 3-kinase catalytic subunit alpha isoform (Homo sapiens), P42336 [H1047R] (P42336 whole entry H1047R, canonical isoform): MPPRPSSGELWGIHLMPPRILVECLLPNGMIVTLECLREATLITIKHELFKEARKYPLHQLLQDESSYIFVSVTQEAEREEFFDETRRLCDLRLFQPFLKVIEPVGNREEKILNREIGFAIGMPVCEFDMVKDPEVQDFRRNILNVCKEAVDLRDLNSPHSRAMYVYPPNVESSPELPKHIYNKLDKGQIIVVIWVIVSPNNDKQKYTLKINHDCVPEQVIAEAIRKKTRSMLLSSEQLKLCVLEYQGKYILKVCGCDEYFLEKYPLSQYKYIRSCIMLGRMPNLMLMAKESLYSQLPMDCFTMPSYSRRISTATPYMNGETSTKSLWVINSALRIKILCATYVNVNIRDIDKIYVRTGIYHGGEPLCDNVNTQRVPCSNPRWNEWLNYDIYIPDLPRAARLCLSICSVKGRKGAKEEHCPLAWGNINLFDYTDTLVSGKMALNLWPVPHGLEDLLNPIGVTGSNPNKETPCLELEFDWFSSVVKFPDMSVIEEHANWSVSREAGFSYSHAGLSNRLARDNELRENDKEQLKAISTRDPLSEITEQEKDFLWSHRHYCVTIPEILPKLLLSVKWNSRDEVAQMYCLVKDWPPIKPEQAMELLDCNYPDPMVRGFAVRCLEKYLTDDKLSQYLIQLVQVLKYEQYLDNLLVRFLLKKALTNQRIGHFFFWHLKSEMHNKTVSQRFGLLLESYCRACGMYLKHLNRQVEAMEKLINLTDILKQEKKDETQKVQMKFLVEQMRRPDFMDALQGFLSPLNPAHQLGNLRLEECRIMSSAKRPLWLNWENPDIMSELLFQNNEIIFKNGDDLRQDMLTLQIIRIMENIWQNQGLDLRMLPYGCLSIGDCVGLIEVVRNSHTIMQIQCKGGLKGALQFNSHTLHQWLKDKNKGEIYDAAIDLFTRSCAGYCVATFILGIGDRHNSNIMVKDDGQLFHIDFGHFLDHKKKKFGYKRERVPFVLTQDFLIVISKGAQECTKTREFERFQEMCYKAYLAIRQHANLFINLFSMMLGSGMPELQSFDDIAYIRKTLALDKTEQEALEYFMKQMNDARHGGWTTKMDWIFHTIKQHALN
Data set [9] can be described thus: Solubility at pH 7.4. The class given is physicochemical. As to conditions: buffer.
The nature of data set [10]: Permeability from apical to basolateral side of the human Caco-2 membrane. Format: ADME, cell-based. As to conditions: read-out: permeability. Background: Passage across Caco-2 layers is used to estimate intestinal permeability.
Data set [11] can be described thus: Permeability from basolateral to apical side of the human Caco-2 membrane. Format: ADME, cell-based. As to conditions: read-out: permeability.
Data set [12] can be described thus: Half life in mouse microsome. The following applies: microsomes. The class given is ADME.
Data set [13] is described as follows: Half life in rat microsome. Format: ADME. As to conditions: microsomes.
Data set [14] in a line: Half life in human microsome. The class given is ADME. As to conditions: microsomes.
Data set [15] concerns Mus musculus. Put plainly: Inhibition of AKT-T308 phosphorylation in nude mouse at 25 mg/kg, iv after 8 hrs. The class given is functional, organism-based. Set-up: dose 25 mg/kg.
Data set [16] has as its system Mus musculus. In words: Inhibition of AKT-S473 phosphorylation in nude mouse at 25 mg/kg, iv after 8 hrs. Format: functional, organism-based. Set-up: dose 25 mg/kg.
The subject of data set [17] is Mus musculus. In words: Inhibition of AKT-P70S6K phosphorylation in nude mouse at 25 mg/kg, iv after 8 hrs. The class given is functional, organism-based. Set-up: dose 25 mg/kg.
Data set [18] concerns Mus musculus. In words: Inhibition of AKT-PS6 phosphorylation in nude mouse at 25 mg/kg, iv after 8 hrs. The class given is functional, organism-based. Set-up: dose 25 mg/kg.
Data set [19] has as its system MDA-MB-361. In words: Antitumor activity against human MDA-MB-361 cells xenografted in mouse assessed as reduction in tumor size at 25 mg/kg, iv after 1 to 9 days. Format: functional, organism-based. Set-up: dose 25 mg/kg.
The test system of data set [20] is Phosphatidylinositol 4,5-bisphosphate 3-kinase catalytic subunit alpha isoform (Homo sapiens), P42336 [E545K]. Put plainly: Inhibition of PI3Kalpha E545K mutant.
Sequence of Phosphatidylinositol 4,5-bisphosphate 3-kinase catalytic subunit alpha isoform (Homo sapiens), P42336 [E545K] (P42336 whole entry E545K, canonical isoform): as the sequence (P42336 whole entry H1047R, canonical isoform) above, with E545K, R1047H counted along it

Molecules are shown by their SMILES. ≈ marks a conversion by molar mass, not a printed value. Calls of active or inactive are those of the source. The calls are words filed in the database; no cut-off is given here.

Sequence of Phosphatidylinositol 4,5-bisphosphate 3-kinase catalytic subunit alpha isoform (P42336 whole entry, canonical isoform): as the sequence (P42336 whole entry H1047R, canonical isoform) above, with R1047H counted along it
Sequence of Phosphatidylinositol 4,5-bisphosphate 3-kinase catalytic subunit beta isoform (P42338 whole entry, canonical isoform): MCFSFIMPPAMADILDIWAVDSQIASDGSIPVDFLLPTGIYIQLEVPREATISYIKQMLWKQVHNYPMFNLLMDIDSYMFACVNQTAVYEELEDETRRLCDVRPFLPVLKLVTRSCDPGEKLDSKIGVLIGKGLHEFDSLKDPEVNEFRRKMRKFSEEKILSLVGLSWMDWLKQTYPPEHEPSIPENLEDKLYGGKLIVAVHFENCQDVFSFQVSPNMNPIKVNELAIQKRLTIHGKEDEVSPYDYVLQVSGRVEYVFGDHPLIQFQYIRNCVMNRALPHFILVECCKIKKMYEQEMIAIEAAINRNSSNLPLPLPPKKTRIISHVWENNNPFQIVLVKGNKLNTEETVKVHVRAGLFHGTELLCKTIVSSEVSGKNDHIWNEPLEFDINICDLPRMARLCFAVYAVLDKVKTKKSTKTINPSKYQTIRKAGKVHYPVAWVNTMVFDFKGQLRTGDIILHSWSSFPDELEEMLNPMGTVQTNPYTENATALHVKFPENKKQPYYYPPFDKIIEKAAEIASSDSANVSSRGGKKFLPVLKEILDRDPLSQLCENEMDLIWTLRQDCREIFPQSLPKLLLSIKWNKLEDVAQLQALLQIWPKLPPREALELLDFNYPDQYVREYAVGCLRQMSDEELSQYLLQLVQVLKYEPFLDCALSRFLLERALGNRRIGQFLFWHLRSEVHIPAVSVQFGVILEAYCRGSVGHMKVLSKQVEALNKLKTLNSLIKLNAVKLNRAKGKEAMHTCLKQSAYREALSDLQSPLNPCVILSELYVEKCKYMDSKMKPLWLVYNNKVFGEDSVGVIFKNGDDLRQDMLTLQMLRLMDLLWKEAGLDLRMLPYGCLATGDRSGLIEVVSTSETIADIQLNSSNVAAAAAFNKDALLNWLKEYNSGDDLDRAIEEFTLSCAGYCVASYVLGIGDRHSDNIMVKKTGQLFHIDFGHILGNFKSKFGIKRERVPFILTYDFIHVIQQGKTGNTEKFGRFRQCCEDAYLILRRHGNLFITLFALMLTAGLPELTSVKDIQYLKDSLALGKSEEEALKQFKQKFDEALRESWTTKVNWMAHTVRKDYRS
Sequence of Phosphatidylinositol 4,5-bisphosphate 3-kinase catalytic subunit gamma isoform (P48736 whole entry, canonical isoform): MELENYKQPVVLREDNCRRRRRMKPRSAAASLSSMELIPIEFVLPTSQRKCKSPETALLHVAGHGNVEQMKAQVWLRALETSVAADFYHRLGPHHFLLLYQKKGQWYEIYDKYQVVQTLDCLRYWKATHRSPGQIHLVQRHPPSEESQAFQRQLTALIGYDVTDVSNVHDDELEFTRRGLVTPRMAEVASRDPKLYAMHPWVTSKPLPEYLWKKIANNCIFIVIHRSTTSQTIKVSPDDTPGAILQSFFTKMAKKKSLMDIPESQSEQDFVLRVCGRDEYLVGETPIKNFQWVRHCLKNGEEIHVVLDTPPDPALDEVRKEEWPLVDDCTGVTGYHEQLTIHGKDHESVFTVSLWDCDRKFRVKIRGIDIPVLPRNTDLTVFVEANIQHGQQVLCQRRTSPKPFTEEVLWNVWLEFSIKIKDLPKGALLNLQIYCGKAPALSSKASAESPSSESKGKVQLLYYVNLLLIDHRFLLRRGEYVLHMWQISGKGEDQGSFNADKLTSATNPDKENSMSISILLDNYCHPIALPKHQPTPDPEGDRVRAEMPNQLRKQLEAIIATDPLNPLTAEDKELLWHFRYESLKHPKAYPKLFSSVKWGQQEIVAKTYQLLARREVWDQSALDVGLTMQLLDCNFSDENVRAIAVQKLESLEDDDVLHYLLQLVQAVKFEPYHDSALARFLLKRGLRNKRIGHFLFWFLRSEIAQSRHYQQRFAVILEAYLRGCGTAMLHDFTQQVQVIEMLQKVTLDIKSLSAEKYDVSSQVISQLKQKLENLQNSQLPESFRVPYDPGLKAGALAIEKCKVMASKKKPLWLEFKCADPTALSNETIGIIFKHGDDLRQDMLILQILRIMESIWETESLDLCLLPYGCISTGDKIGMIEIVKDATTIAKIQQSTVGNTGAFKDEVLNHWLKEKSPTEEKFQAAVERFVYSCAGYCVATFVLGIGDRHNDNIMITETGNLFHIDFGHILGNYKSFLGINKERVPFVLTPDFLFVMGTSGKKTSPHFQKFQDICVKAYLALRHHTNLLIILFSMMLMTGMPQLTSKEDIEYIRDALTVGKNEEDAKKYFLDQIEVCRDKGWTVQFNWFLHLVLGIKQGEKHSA

One may read the IC50 as the midpoint of a concentration-inhibition curve. Low values mean inhibition by little substance, high ones a need for much substance. For `CNC(=O)Nc1ccc2c(c1)C(=O)/C(=C\c1c(-c3c(C)nn(C)c3C)[nH]c3c(F)cc(OC)cc13)O2`, the IC50 in data set [1] was 0.4 nM; in data set [2], 2.4 nM; in data set [3] it was 62 nM; with MDA-MB-361 [4], 20 nM.

In the case of `COc1ccc2[nH]c(-c3c(C)nn(C)c3C)c(/C=C3/Oc4ccc(NC(=O)Nc5ccc(C(=O)N6CCN(C)CC6)cc5)cc4C3=O)c2c1`, the half-maximal inhibitory concentration (IC50) was 0.2 nM in data set [1], 3.8 nM in data set [2], 131 nM in data set [3] and 8 nM with MDA-MB-361 [4].

`COc1cc(F)c2[nH]c(-c3c(C)nn(C)c3C)c(/C=C3/Oc4ccc(NC(=O)Nc5cccnc5)cc4C3=O)c2c1`: the IC50 in [1] was 1 nM; in data set [2], 1.5 nM; in [3], > 1000 nM; in the data set on MDA-MB-361 [4], 39 nM.

Consider `COc1cc(F)c2[nH]c(-c3c(C)nn(C)c3C)c(/C=C3/Oc4ccc(NC(=O)Nc5ccc(C(=O)N6CCOCC6)cc5)cc4C3=O)c2c1`, for which the 50% inhibitory concentration (IC50) is 0.5 nM in data set [1], 2.5 nM in [2], 57 nM in data set [3] and 6 nM in the data set with MDA-MB-361 [4].

As for `COc1ccc2[nH]c(-c3c(C)nn(C)c3C)c(/C=C3/Oc4ccc(NC(=O)Nc5cccnc5)cc4C3=O)c2c1`, the 50% inhibitory concentration (IC50) is 0.5 nM in [1], 5.2 nM in data set [2], > 10000 nM in data set [3] and 76 nM in the data set on MDA-MB-361 [4].

`COc1ccc2[nH]c(-c3c(C)nn(C)c3C)c(/C=C3/Oc4ccc(NC(=O)Nc5ccc(C(=O)N(C)CCN(C)C)cc5)cc4C3=O)c2c1`: the IC50 in [1] was 0.3 nM; in data set [2], 1.1 nM; in data set [3], 23 nM; with MDA-MB-361 [4], < 3 nM.

`COc1ccc2[nH]c(-c3c(C)nn(C)c3C)c(/C=C3/Oc4ccc(NC(=O)Nc5ccc(C(=O)N6CCOCC6)cc5)cc4C3=O)c2c1`: the IC50 in data set [1] came to 0.2 nM; in data set [2] it was 4.2 nM; in [3], 94 nM; in the data set on MDA-MB-361 [4], 6 nM.

Consider `COc1ccc2[nH]cc(/C=C3/Oc4ccc(NC(=O)Nc5ccc(C(=O)N6CCN(C)CC6)cc5)cc4C3=O)c2c1`, for which the concentration for half-maximal inhibition (IC50) in data set [1] is 0.9 nM; in data set [2] it was > 4000 nM; in data set [3], > 1000 nM; with MDA-MB-361 [4], > 1000 nM.

Usually solubility stands for the dissolved amount per volume that the medium holds. Read a low solubility as little dissolved substance. By half-life is commonly meant how long it takes for the measured level to halve. As to `COc1cc(F)c2[nH]c(-c3c(C)nn(C)c3C)c(/C=C3/Oc4ccc(NC(=O)Nc5ccc(C(=O)N(C)CCN(C)C)cc5)cc4C3=O)c2c1`, the IC50 is 0.2 nM in data set [1]; 0.3 nM in data set [2]; 10 nM in data set [3]; < 3 nM in the data set on MDA-MB-361 [4]; 0.7 nM in data set [5]; 2.4 nM in [6]. Further, the concentration for half-maximal inhibition (IC50) in data set [7] was 0.6 nM; in data set [20] it was 0.3 nM. The molecule also gave an INH in [8] of 0.5 nM. In data set [9], this molecule came in with a solubility of 1 µg/mL (≈ 1.47 µM). Moreover, the Papp A→B in [10] turned out to be 0.3 ×10⁻⁶ cm/s. Further, the Papp B→A in [11] was 0.3 ×10⁻⁶ cm/s. For the same molecule, the half-life in data set [12], in [13] and in [14] was > 30 min throughout. Further, the inhibition result with Mus musculus [15], in the data set with Mus musculus [16], with Mus musculus [17] and in the data set with Mus musculus [18] was “Active” throughout. Also, the result in the data set with MDA-MB-361 [19] was Active.

As to `CNC(=O)Nc1ccc2c(c1)C(=O)/C(=C\c1c(-c3c(C)nn(C)c3C)[nH]c3ccc(OC)cc13)O2`, the concentration for half-maximal inhibition (IC50) in data set [1] was determined as 0.4 nM; in data set [2], 1.3 nM; in data set [3], 130 nM; in the data set with MDA-MB-361 [4], 36 nM.
